Legend:
Experiment in all cases: Bliss excess, mean over the matrix (fraction); higher = more synergy
[1] = tested on: BL-41 (Burkitt's Lymphoma)
Procedure, shortened: (§1)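 Bliss excess equals the observed combination effect minus the expected value EA + EB − EA·EB, where EA and EB are the effects of each agent alone. Combination Emax is the second-highest inhibition within the matrix. Inhibition was scaled from CellTiter-Glo 2.0 luminescence, with 0 set by vehicle wells and 1 by blank wells, after 72 hours of two-drug dosing of cells plated in 1536-well plates.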

[2] = tested on: CAMA-1 (Breast Carcinoma)
Procedure, shortened: as §1

[3] = tested on: COLO-678 (Colorectal Carcinoma)
Procedure, shortened: as §1

[4] = tested on: DiFi (Colorectal Carcinoma)
Procedure, shortened: as §1

[5] = tested on: EVSA-T (Breast Carcinoma)
Procedure, shortened: as §1

[6] = tested on: HDQ-P1 (Breast Carcinoma)
Procedure, shortened: as §1

[7] = tested on: KARPAS-45 (T-Lymphoblastic Leukemia)
Procedure, shortened: as §1

[8] = tested on: KCL-22 (Chronic Myelogenous Leukemia)
Procedure, shortened: as §1

[9] = tested on: L-540 (Hodgkin's Lymphoma)
Procedure, shortened: as §1

MEL-JUSO (Melanoma) = tested on: MEL-JUSO (Melanoma)
Procedure, shortened: as §1

[10] = tested on: MFM-223 (Breast Carcinoma)
Procedure, shortened: as §1

[11] = tested on: MKN28 (Gastric Carcinoma)
Procedure, shortened: as §1

NCI-H2818 (Mesothelioma) = tested on: NCI-H2818 (Mesothelioma)
Procedure, shortened: as §1

[12] = tested on: NCI-H847 (Small Cell Lung Carcinoma)
Procedure, shortened: as §1

[13] = tested on: SU-DHL-8 (B-Cell Non-Hodgkin's Lymphoma)
Procedure, shortened: as §1

[14] = tested on: SW1417 (Colorectal Carcinoma)
Procedure, shortened: as §1

[15] = tested on: SW837 (Colorectal Carcinoma)
Procedure, shortened: as §1

[16] = tested on: TE-6 (Esophageal Squamous Cell Carcinoma)
Procedure, shortened: as §1

WM-115 (Melanoma) = tested on: WM-115 (Melanoma)
Procedure, shortened: as §1

| Compound | Bliss excess [1] | Bliss excess [2] | Bliss excess [3] | Bliss excess [4] | Bliss excess [5] | Bliss excess [6] | Bliss excess [7] | Bliss excess [8] | Bliss excess [9] | Bliss excess (MEL-JUSO (Melanoma)) | Bliss excess [10] | Bliss excess [11] | Bliss excess (NCI-H2818 (Mesothelioma)) | Bliss excess [12] | Bliss excess [13] | Bliss excess [14] | Bliss excess [15] | Bliss excess [16] | Bliss excess (WM-115 (Melanoma)) |
| --- | --- | --- | --- | --- | --- | --- | --- | --- | --- | --- | --- | --- | --- | --- | --- | --- | --- | --- | --- |
| CN(C)CCCOc1ccc(-c2ccc3ncc4c(c3c2)n(C2CCOCC2)c(=O)n4C)cn1 [AZD0156] + C[C@@H]1COCCN1C2=NC(=NC(=C2)C3(CC3)[S@](=N)(=O)C)C4=C5C=CNC5=NC=C4 [AZD6738] (first compound max 1 µM, 7x7, partner max 10 µM) | 0.0704 | -0.0444 | -0.0169 | 0.0174 | 0.0081 | 0.0214 | 0.0333 | 0.0274 | -0.0163 | 0.0108 | 0.0432 | -0.0092 | -0.0511 | -0.0116 | 0.0169 | -0.0019 | 0.0071 | 0.0225 | -0.0565 |
| C=CCn1c(=O)c2cnc(Nc3ccc(N4CCN(C)CC4)cc3)nc2n1-c1cccc(C(C)(C)O)n1 [AZD1775] + C[C@@H]1COCCN1C2=NC(=NC(=C2)C3(CC3)[S@](=N)(=O)C)C4=C5C=CNC5=NC=C4 [AZD6738] (first compound max 1 µM, partner max 10 µM) | 0.0369 | 0.0371 | -0.028 | 0.0242 | 0.033 | -0.0038 | 0.0465 | 0.0331 | -0.0091 | 0.0009 | 0.0412 | 0.0597 | -0.0577 | 0.0684 | -0.0202 | -0.0253 | 0.0057 | 0.0135 | -0.0523 |
| C=CCn1c(=O)c2cnc(Nc3ccc(N4CCN(C)CC4)cc3)nc2n1-c1cccc(C(C)(C)O)n1 [AZD1775] + O=C(c1cc(Cc2n[nH]c(=O)c3ccccc23)ccc1F)N1CCN(C(=O)C2CC2)CC1 [Olaparib] (first compound max 1 µM, partner max 10 µM) | -0.0211 | -0.0452 | -0.012 | -0.0145 | 0.0622 | -0.0441 | -0.0302 | -0.0415 | -0.045 | -0.0523 | -0.0421 | 0.0046 | 0.0324 | 0.0627 | -0.0157 | -0.0605 | -0.0125 | -0.0297 | -0.0169 |
| CCN(CCO)CCCOc1ccc2c(Nc3cc(CC(=O)Nc4cccc(F)c4)[nH]n3)ncnc2c1 [AZD2811] + C=CCn1c(=O)c2cnc(Nc3ccc(N4CCN(C)CC4)cc3)nc2n1-c1cccc(C(C)(C)O)n1 [AZD1775] (first compound max 1 µM, partner max 1 µM) | 0.0862 | -0.0328 | -0.0002 | 0.0322 | -0.0073 | -0.0186 | -0.0766 | 0.0162 | 0.0772 | 0.0131 | 0.0277 | -0.0954 | -0.0461 | -0.0091 | 0.0945 | -0.0654 | 0.0033 | -0.0367 | -0.0562 |
| CCN(CCO)CCCOc1ccc2c(Nc3cc(CC(=O)Nc4cccc(F)c4)[nH]n3)ncnc2c1 [AZD2811] + C[C@@H]1COCCN1C2=NC(=NC(=C2)C3(CC3)[S@](=N)(=O)C)C4=C5C=CNC5=NC=C4 [AZD6738] (first compound max 1 µM, 7x7, partner max 10 µM) | -0.0647 | -0.0417 | -0.0034 | -0.0331 | -0.0263 | -0.0597 | -0.0944 | 0.0285 | -0.0078 | -0.0644 | -0.0251 | -0.0513 | -0.0925 | -0.0089 | 0.134 | -0.0709 | -0.0252 | -0.0175 | -0.0345 |
| CCN(CCO)CCCOc1ccc2c(Nc3cc(CC(=O)Nc4cccc(F)c4)[nH]n3)ncnc2c1 [AZD2811] + O=C(c1cc(Cc2n[nH]c(=O)c3ccccc23)ccc1F)N1CCN(C(=O)C2CC2)CC1 [Olaparib] (first compound max 1 µM, 7x7, partner max 10 µM) | -0.121 | -0.0308 | -0.0223 | -0.0153 | 0.0242 | 0.0076 | -0.115 | 0.0534 | 0.0113 | -0.0015 | 0.0058 | -0.0319 | -0.0415 | -0.0464 | 0.102 | -0.0456 | 0.0027 | -0.0006 | -0.0343 |
| C[C@@H]1COCCN1c1cc(C2([S@](C)(=N)=O)CC2)nc(-c2ccnc3[nH]ccc23)n1 [AZD6738] + O=C(c1cc(Cc2n[nH]c(=O)c3ccccc23)ccc1F)N1CCN(C(=O)C2CC2)CC1 [Olaparib] (first compound max 10 µM, 7x7, partner max 10 µM) | -0.0556 | -0.0327 | -0.0046 | 0.0033 | 0.0017 | 0.0155 | 0.0023 | -0.0454 | -0.022 | 0.0118 | 0.0074 | -0.001 | 0.0285 | -0.014 | 0.0343 | 0.0033 | 0.0093 | -0.0172 | 0.0166 |
| Cc1cc2ncnn2cc1Nc1ncc2c(n1)n(C1CCOCC1)c(=O)n2C [AZD7648] + C=CCn1c(=O)c2cnc(Nc3ccc(N4CCN(C)CC4)cc3)nc2n1-c1cccc(C(C)(C)O)n1 [AZD1775] (first compound max 10 µM, partner max 1 µM) | -0.0511 | -0.0068 | -0.0224 | -0.0013 | -0.024 | -0.0805 | 0.0367 | 0.0015 | 0.0106 | 0.0263 | -0.0357 | 0.0495 | 0.0563 | -0.0216 | -0.0079 | -0.0328 | 0.0241 | -0.07 | 0.0217 |
| Cc1cc2ncnn2cc1Nc1ncc2c(n1)n(C1CCOCC1)c(=O)n2C [AZD7648] + CCN(CCO)CCCOc1ccc2c(Nc3cc(CC(=O)Nc4cccc(F)c4)[nH]n3)ncnc2c1 [AZD2811] (first compound max 10 µM, 7x7, partner max 1 µM) | 0.0668 | -0.0677 | -0.0119 | 0.005 | 0.0122 | -0.0154 | -0.0341 | 0.115 | 0.048 | 0.0461 | 0.0257 | 0.0124 | 0.0283 | -0.0211 | 0.038 | -0.106 | 0.0018 | 0.0257 | 0.0205 |
| Cc1cc2ncnn2cc1Nc1ncc2c(n1)n(C1CCOCC1)c(=O)n2C [AZD7648] + CN(C)CCCOc1ccc(-c2ccc3ncc4c(c3c2)n(C2CCOCC2)c(=O)n4C)cn1 [AZD0156] (first compound max 10 µM, 7x7, partner max 1 µM) | 0.0154 | -0.0238 | -0.0231 | -0.0119 | -0.0126 | 0.0157 | -0.0274 | 0.0542 | -0.0074 | -0.0029 | -0.0325 | -0.0127 | -0.0055 | -0.0113 | 0.016 | -0.0262 | 0.0255 | -0.0515 | -0.0098 |
| Cc1cc2ncnn2cc1Nc1ncc2c(n1)n(C1CCOCC1)c(=O)n2C [AZD7648] + C[C@@H]1COCCN1C2=NC(=NC(=C2)C3(CC3)[S@](=N)(=O)C)C4=C5C=CNC5=NC=C4 [AZD6738] (first compound max 10 µM, 7x7, partner max 10 µM) | -0.0052 | -0.0631 | -0.0346 | 0.0639 | 0.0622 | -0.0229 | 0.0129 | 0.0341 | -0.0031 | 0.0289 | -0.0127 | -0.0081 | 0.0738 | 0.0519 | -0.0136 | 0.0175 | -0.0077 | 0.0697 | 0.0145 |
| Cc1cc2ncnn2cc1Nc1ncc2c(n1)n(C1CCOCC1)c(=O)n2C [AZD7648] + O=C(c1cc(Cc2n[nH]c(=O)c3ccccc23)ccc1F)N1CCN(C(=O)C2CC2)CC1 [Olaparib] (first compound max 10 µM, 7x7, partner max 10 µM) | -0.0368 | -0.054 | -0.0177 | -0.0484 | -0.0077 | 0.0133 | 0.0031 | -0.0367 | -0.0352 | -0.0264 | -0.0131 | -0.0411 | -0.0776 | -0.0071 | 0.0195 | -0.0597 | -0.0246 | -0.0419 | -0.0391 |
| COc1cccc2c1C(=O)c1c(O)c3c(c(O)c1C2=O)C[C@@](O)(C(=O)CO)C[C@@H]3O[C@H]1C[C@H](N)[C@H](O)[C@H](C)O1 [Doxorubicin] + Cc1cc2ncnn2cc1Nc1ncc2c(n1)n(C1CCOCC1)c(=O)n2C [AZD7648] (first compound max 1 µM, 7x7, partner max 10 µM) | 0.0714 | 0.0266 | 0.0188 | 0.051 | 0.0503 | 0.0561 | -0.0006 | 0.086 | 0.0793 | 0.0309 | 0.0261 | -0.0179 | -0.0019 | 0.124 | 0.0145 | 0.0216 | 0.0068 | -0.0541 | -0.0234 |
| COc1cccc(OCCCN)c1-c1cc(Nc2cnc(C#N)cn2)n[nH]1 [Prexasertib] + C=CCn1c(=O)c2cnc(Nc3ccc(N4CCN(C)CC4)cc3)nc2n1-c1cccc(C(C)(C)O)n1 [AZD1775] (first compound max 1 µM, partner max 1 µM) | 0.0467 | 0.11 | -0.0079 | 0.0236 | 0.0197 | 0.0861 | 0.0553 | 0.088 | -0.0185 | 0.0303 | 0.0825 | 0.0901 | -0.0212 | 0.0809 | -0.0202 | 0.0443 | 0.073 | 0.0995 | 0.0354 |
| COc1cccc(OCCCN)c1-c1cc(Nc2cnc(C#N)cn2)n[nH]1 [Prexasertib] + CN(C)CCCOc1ccc(-c2ccc3ncc4c(c3c2)n(C2CCOCC2)c(=O)n4C)cn1 [AZD0156] (first compound max 1 µM, 7x7, partner max 1 µM) | -0.0134 | 0.0046 | -0.036 | -0.0503 | -0.0133 | 0.023 | -0.0485 | -0.0021 | 0.0019 | 0.0301 | -0.0028 | -0.0286 | -0.0871 | -0.0124 | -0.0553 | -0.0473 | -0.0022 | -0.0081 | -0.0035 |
| COc1cccc(OCCCN)c1-c1cc(Nc2cnc(C#N)cn2)n[nH]1 [Prexasertib] + C[C@@H]1COCCN1C2=NC(=NC(=C2)C3(CC3)[S@](=N)(=O)C)C4=C5C=CNC5=NC=C4 [AZD6738] (first compound max 1 µM, 7x7, partner max 10 µM) | -0.0066 | -0.0484 | -0.0346 | -0.0794 | 0.0094 | 0.11 | -0.0117 | -0.0302 | -0.0341 | -0.0307 | -0.106 | 0.0579 | -0.0168 | -0.035 | -0.0214 | 0.0572 | 0.0106 | 0.0669 | 0.0242 |
